Reference: patent US10092551B2, “Spiro-thiazolones” (Hoffmann-La Roche Inc., priority 2014, dated 2018)

The compounds below were run against human V1a receptor (Homo sapiens (Human), UniProt P37288) (assay: human V1a receptor binding studies (3H-Vasopressin, SPA beads)). Settings: membranes of HEK293 cells transiently transfected with human V1a receptor, Ki by Cheng-Prussoff.
Procedure: The human V1a receptor was cloned by RT-PCR from total human liver RNA. The coding sequence was subcloned in an expression vector after sequencing to confirm the identity of the amplified sequence. […] Cell membranes were prepared from HEK293 cells transiently transfected with the expression vector and grown in 20 liter fermenters with the following protocol.
50 g of cells are re-suspended in 30 ml freshly prepared ice cold Lysis buffer (50 mM HEPES, 1 mM EDTA, 10 mM MgCl2 adjusted to pH=7.4+complete cocktail of protease inhibitor (Roche Diagnostics)). Homogenized with Polytron for 1 min and sonicated on ice for 2×2 minutes at 80% intensity (Vibracell sonicator). The preparation is centrifuged 20 min at 500 g at 4° C., the pellet is discarded and the supernatant centrifuged 1 hour at 43,000 g at 4° C. (19,000 rpm). The pellet is re-suspended in 12.5 ml Lysis buffer+12.5 ml Sucrose 20% and homogenized using a Polytron for 1-2 min. The protein concentration is determined by the Bradford method and aliquots are stored at −80° C. until use. For binding studies 60 mg Yttrium silicate SPA beads (Amersham) are mixed with an aliquot of membrane in binding buffer (50 mM Tris, 120 mM NaCl, 5 mM KCl, 2 mM CaCl2, 10 mM MgCl2) for 15 minutes with mixing. 50 μl of bead/membrane mixture is then added to each well of a 96 well plate, followed by 50 μl of 4 nM 3H-Vasopressin (American Radiolabeled Chemicals). For total binding measurement 100 μl of binding buffer are added to the respective wells, for non-specific binding 100 μl of 8.4 mM cold vasopressin and for compound testing 100 μl of a serial dilution of each compound in 2% DMSO. The plate is incubated 1 h at room temperature, centrifuged 1 min at 1000 g and counted on a Packard Top-Count. Non-specific binding counts are subtracted from each well and data is normalized to the maximum specific binding set at 100%. To calculate an IC 50 the curve is fitted using a non-linear regression model (XLfit) and the Ki is calculated using the Cheng-Prussoff equation.

Chain of human V1a receptor (P37288 whole entry): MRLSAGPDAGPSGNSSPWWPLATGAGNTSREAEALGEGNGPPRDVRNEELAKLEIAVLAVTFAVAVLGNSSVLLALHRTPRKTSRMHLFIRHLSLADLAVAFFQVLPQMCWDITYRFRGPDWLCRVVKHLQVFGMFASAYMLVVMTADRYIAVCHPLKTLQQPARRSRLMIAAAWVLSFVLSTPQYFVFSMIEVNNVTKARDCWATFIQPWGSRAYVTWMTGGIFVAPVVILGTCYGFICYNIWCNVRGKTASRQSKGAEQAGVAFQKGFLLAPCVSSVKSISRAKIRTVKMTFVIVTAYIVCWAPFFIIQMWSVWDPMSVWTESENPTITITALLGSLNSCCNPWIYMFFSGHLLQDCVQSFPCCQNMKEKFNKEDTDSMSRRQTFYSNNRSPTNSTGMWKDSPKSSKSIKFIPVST

Question: Which “pKi hV1a” value does the source give for C/C(=C1/SC(N2CCC3(CC2)OCc2ccccc23)=NC1=O)c1ccncc1 [Example 33, (5Z)-5-[1-(pyridin-4-yl)ethylidene]-2-(1′H,3H-spiro[2-benzofuran-1,4′-piperidin]-1′-yl)-1,3-thiazol-4(5H)-one] here?
Answer: Its value is 8.3.

Question: With CC/C(=C1/SC(N2CCC3(CC2)OCc2ccccc23)=NC1=O)c1ccncc1 [Example 31, (5Z)-5-[1-(pyridin-4-yl)propylidene]-2-(1′H,3H-spiro[2-benzofuran-1,4′-piperidin]-1′-yl)-1,3-thiazol-4(5H)-one] as the compound, how does the “pKi hV1a” value read?
Answer: Its value is 8.4.

Question: CC/C(=C1/SC(N2CCC3(CC2)OCc2ccccc23)=NC1=O)c1cc(C)on1 [Example 64, (5E/Z)-5-[1-(5-methyl-1,2-oxazol-3-yl)propylidene]-2-(1′H,3H-spiro[2-benzofuran-1,4′-piperidin]-1′-yl)-1,3-thiazol-4(5H)-one] was tested. Which “pKi hV1a” value did it give?
Answer: The value was 8.6.

Question: How did the “pKi hV1a” value turn out when COC1CCCC/C1=C1/SC(N2CCC3(CC2)OCc2ccccc23)=NC1=O (stereo not shown) [Example 73, (5E/Z)-5-(2-methoxycyclohexylidene)-2-(1′H,3H-spiro[2-benzofuran-1,4′-piperidin]-1′-yl)-1,3-thiazol-4(5H)-one] was run?
Answer: Its value is 8.8.

Question: O=C1N=C(N2CCC3(CC2)OCc2ccccc23)S/C1=C1/CCc2ccccc21 [Example 46, (5Z)-5-(2,3-dihydro-1H-inden-1-ylidene)-2-(1′H,3H-spiro[2-benzofuran-1,4′-piperidin]-1′-yl)-1,3-thiazol-4(5H)-one] was tested. Which “pKi hV1a” value did it give?
Answer: The value was 8.3.

Question: How did the “pKi hV1a” value turn out when CC(C)CC(CC(C)C)=C1SC(N2CCC3(CC2)OCc2ccccc23)=NC1=O [Example 116, 5-(2,6-dimethylheptan-4-ylidene)-2-(1′H,3H-spiro[2-benzofuran-1,4′-piperidin]-1′-yl)-1,3-thiazol-4(5H)-one] was run?
Answer: The value was 8.3.

Question: How did the “pKi hV1a” value turn out when C/C(=C1/SC(N2CCC3(CC2)OCc2ccccc23)=NC1=O)c1cccnc1F [Example 61, (5Z)-5-[1-(2-fluoropyridin-3-yl)ethylidene]-2-(1′H,3H-spiro[2-benzofuran-1,4′-piperidin]-1′-yl)-1,3-thiazol-4(5H)-one] was run?
Answer: The value was 9.1.

Question: Which “pKi hV1a” value does the source give for CC(C)=C1SC(N2CCC3(CC2)OCc2ccccc23)=NC1=O [Example 30, 5-(propan-2-ylidene)-2-(1′H,3H-spiro[2-benzofuran-1,4′-piperidin]-1′-yl)-1,3-thiazol-4(5H)-one] here?
Answer: Its value is 7.8.

Question: Which “pKi hV1a” value does the source give for C/C(=C1/SC(N2CCC3(CC2)OCc2ccccc23)=NC1=O)c1cccnc1Cl [Example 83, (5Z)-5-[1-(2-chloropyridin-3-yl)ethylidene]-2-(1′H,3H-spiro[2-benzofuran-1,4′-piperidin]-1′-yl)-1,3-thiazol-4(5H)-one] here?
Answer: Its value is 8.8.

Question: For O=C1N=C(N2CCC3(CC2)OCc2ccccc23)SC1=C1c2ccccc2-c2ccccc21 [Example 104, 5-(9H-fluoren-9-ylidene)-2-(1′H,3H-spiro[2-benzofuran-1,4′-piperidin]-1′-yl)-1,3-thiazol-4(5H)-one], which “pKi hV1a” value is on record?
Answer: The value was 8.2.

Question: O=C1N=C(N2CCC3(CC2)OCc2ccccc23)SC1=C1c2ccccc2Oc2ccccc21 [Example 103, 2-(1′H,3H-spiro[2-benzofuran-1,4′-piperidin]-1′-yl)-5-(9H-xanthen-9-ylidene)-1,3-thiazol-4(5H)-one] was tested. Which “pKi hV1a” value did it give?
Answer: Its value is 8.6.

Question: With O=C1N=C(N2CCC3(CC2)OCc2ccccc23)SC1=C(C(F)(F)F)C(F)(F)F [Example 111, 5-(1,1,1,3,3,3-hexafluoropropan-2-ylidene)-2-(1′H,3H-spiro[2-benzofuran-1,4′-piperidin]-1′-yl)-1,3-thiazol-4(5H)-one] as the compound, how does the “pKi hV1a” value read?
Answer: Its value is 7.5.

Question: With C/C(=C1/SC(N2CCC3(CC2)OCc2ccccc23)=NC1=O)c1ccc[nH]1 [Example 34, (5E/Z)-5-[1-(1H-pyrrol-2-yl)ethylidene]-2-(1′H,3H-spiro[2-benzofuran-1,4′-piperidin]-1′-yl)-1,3-thiazol-4(5H)-one] as the compound, how does the “pKi hV1a” value read?
Answer: The value was 9.2.

Question: Which “pKi hV1a” value does the source give for O=C1N=C(N2CCC3(CC2)OCc2ccccc23)S/C1=C\c1ccncc1 [Example 95, 5-(pyridin-4-ylmethylidene)-2-(1′H,3H-spiro[2-benzofuran-1,4′-piperidin]-1′-yl)-1,3-thiazol-4(5H)-one] here?
Answer: Its value is 7.1.

Question: With O=C1N=C(N2CCC3(CC2)OCc2ccccc23)SC1=C1CCC1 [Example 75, 5-cyclobutylidene-2-(1′H,3H-spiro[2-benzofuran-1,4′-piperidin]-1′-yl)-1,3-thiazol-4(5H)-one] as the compound, how does the “pKi hV1a” value read?
Answer: Its value is 7.6.

Question: O=C1N=C(N2CCC3(CC2)OCc2ccccc23)S/C1=C(/CO)c1ccc(Cl)nc1 [Example 130, (5E)-5-[1-(6-chloropyridin-3-yl)-2-hydroxyethylidene]-2-(1′H,3H-spiro[2-benzofuran-1,4′-piperidin]-1′-yl)-1,3-thiazol-4(5H)-one] was tested. Which “pKi hV1a” value did it give?
Answer: Its value is 8.9.

Question: For CC/C(=C1\SC(N2CCC3(CC2)OCc2ccccc23)=NC1=O)c1ccc(Cl)nc1 [Example 134, (5E)-5-[1-(6-chloropyridin-3-yl)propylidene]-2-(1′H,3H-spiro[2-benzofuran-1,4′-piperidin]-1′-yl)-1,3-thiazol-4(5H)-one], which “pKi hV1a” value is on record?
Answer: Its value is 8.0.

Question: Which “pKi hV1a” value does the source give for CC(C)(C)[Si](C)(C)OC/C(=C1\SC(N2CCC3(CC2)OCc2ccccc23)=NC1=O)c1ccc(Cl)nc1 [Example 131, (5Z)-5-[2-{[tert-butyl(dimethyl)silyl]oxy}-1-(6-chloropyridin-3-yl)ethylidene]-2-(1′H,3H-spiro[2-benzofuran-1,4′-piperidin]-1′-yl)-1,3-thiazol-4(5H)-one] here?
Answer: Its value is 7.8.

Question: Which “pKi hV1a” value does the source give for O=C1N=C(N2CCC3(CC2)OC(=O)c2ccccc23)S/C1=C(/CO)c1ccccc1 [Example 143, 1′-[(5E)-5-(2-hydroxy-1-phenylethylidene)-4-oxo-4,5-dihydro-1,3-thiazol-2-yl]-3H-spiro[2-benzofuran-1,4′-piperidin]-3-one] here?
Answer: The value was 8.8.

Question: COC/C(C)=C1\SC(N2CCC3(CC2)OCc2ccccc23)=NC1=O [Example 50, (5E/Z)-5-(1-methoxypropan-2-ylidene)-2-(1′H,3H-spiro[2-benzofuran-1,4′-piperidin]-1′-yl)-1,3-thiazol-4(5H)-one] was tested. Which “pKi hV1a” value did it give?
Answer: Its value is 8.4.

Question: COC1CCCC/C1=C1/SC(N2CCC3(CC2)OCc2ncccc23)=NC1=O (stereo not shown) [Example 164, (5E/Z)-5-(2-methoxycyclohexylidene)-2-(1′H,7H-spiro[furo[3,4-b]pyridine-5,4′-piperidin]-1′-yl)-1,3-thiazol-4(5H)-one] was tested. Which “pKi hV1a” value did it give?
Answer: The value was 6.9.

Question: With C/C(CO[Si](C)(C)C(C)(C)C)=C1\SC(N2CCC3(CC2)OCc2ccccc23)=NC1=O [Example 58, (5E)-5-(1-{[tert-butyl(dimethyl)silyl]oxy}propan-2-ylidene)-2-(1′H,3H-spiro[2-benzofuran-1,4′-piperidin]-1′-yl)-1,3-thiazol-4(5H)-one] as the compound, how does the “pKi hV1a” value read?
Answer: Its value is 7.2.

Question: O=C1N=C(N2CCC3(CC2)OCc2ccccc23)S/C1=C1/CCCc2ccccc21 [Example 45, (5Z)-5-(3,4-dihydronaphthalen-1(2H)-ylidene)-2-(1′H,3H-spiro[2-benzofuran-1,4′-piperidin]-1′-yl)-1,3-thiazol-4(5H)-one] was tested. Which “pKi hV1a” value did it give?
Answer: The value was 8.7.

Question: O=C1N=C(N2CCC3(CC2)OCc2ccccc23)S/C1=C1/CCc2cc(Cl)ccc21 [Example 10, (5E/Z)-5-(5-chloro-2,3-dihydro-1H-inden-1-ylidene)-2-(1′H,3H-spiro[2-benzofuran-1,4′-piperidin]-1′-yl)-1,3-thiazol-4(5H)-one] was tested. Which “pKi hV1a” value did it give?
Answer: The value was 6.9.

Question: How did the “pKi hV1a” value turn out when C/C(CF)=C1/SC(N2CCC3(CC2)OCc2ccccc23)=NC1=O [Example 51, (5E/Z)-5-(1-fluoropropan-2-ylidene)-2-(1′H,3H-spiro[2-benzofuran-1,4′-piperidin]-1′-yl)-1,3-thiazol-4(5H)-one] was run?
Answer: The value was 7.9.

Question: Which “pKi hV1a” value does the source give for COc1ccc(/C(C)=C2\SC(N3CCC4(CC3)OCc3ccccc34)=NC2=O)cn1 [Example 85, (5E/Z)-5-[1-(6-methoxypyridin-3-yl)ethylidene]-2-(1′H,3H-spiro[2-benzofuran-1,4′-piperidin]-1′-yl)-1,3-thiazol-4(5H)-one] here?
Answer: Its value is 8.4.

Question: For CC/C(=C1/SC(N2CCC3(CC2)OC(=O)c2ccccc23)=NC1=O)c1ccc(Cl)nc1 [Example 150, 1′-{(5Z)-5-[1-(6-chloropyridin-3-yl)propylidene]-4-oxo-4,5-dihydro-1,3-thiazol-2-yl}-3H-spiro[2-benzofuran-1,4′-piperidin]-3-one], which “pKi hV1a” value is on record?
Answer: The value was 9.0.

Question: For O=C1N=C(N2CCC3(CC2)OCc2ccccc23)SC1=C(c1ccccn1)c1ccccn1 [Example 110, 5-[di(pyridin-2-yl)methylidene]-2-(1′H,3H-spiro[2-benzofuran-1,4′-piperidin]-1′-yl)-1,3-thiazol-4(5H)-one], which “pKi hV1a” value is on record?
Answer: The value was 7.6.
